3 compounds from patent publication US10413583B2, “Synthetic substrates for enzymes that catalyze reactions of modified cysteines and related methods” (The University of Chicago, priority 2016, dated 2019) can be followed below.

In the assay the test system is HEK293T cells. Put plainly: Live cell fluorescence imaging and flow cytometry of DPP-2 and DPP-3 in HEK293T cells. It counts as cell-based, human. Particulars: for effect of inhibitor on DPP-3 signal: 1 μM PalmB, 1 μM ML348, 1 or 5 μM ML349 (FIGS. 10, 11). The procedure:
HEK293T (650,000 cells per dish) cells were plated with 1.5 mL of Dulbecco's Modified Eagle Medium (DMEM) (High Glucose, 10% fetal bovine serum (FBS)) in a 35 mm glass bottom dish (D35-10-1.5-N; Cellvis, Mountain View, Calif., United States of America) 24 hrs prior to imaging. 30 min before the addition of the DPP probe, the cell culture media was removed and cells were washed with 1 mL of Delbecco's phosphate-buffered saline (DPBS). The media was then replaced with 1 mL of DMEM containing 1 μM Hoechst 33342 and either 0.1% DMSO carrier as a control, 1 or 2 μM Palm B, 0.1, 1.0, or 5 μM ML348, and incubated for 30 min at 37° C. and 5% CO2. The media was removed, the cells were washed with 1 mL of Live Cell Imaging Solution (Thermo Fisher Scientific, Waltham, Mass., United States of America), and 1 mL of 1 μM DPP-2 or DPP-3 in Live Cell Imaging Solution was added to each plate. For ML348 0.1, 1.0, or 5 μM was added along with DPP-2 or DPP-3. After incubation for 15 min at 37° C. and 5% CO2, images were obtained on an inverted epi-fluorescence microscope (Olympus IX83; Olympus Corporation, Tokyo, Japan) attached with EMCCD camera (Photometrics EVOLVE™ Delta; Photometrics, Tucson, Ariz., United States of America) with 40× oil objective (N/A 1.3) for DPP-2 (excitation filter 500/20, dichroic chroma 89007, emission filter 535/30, exposure time 200 ms, EM gain 25), Hoechst 33342: (excitation filter 402/15, emission filter 455/50, dichroic chroma 89013, exposure time 30 ms, EM gain 25), and brightfield (exposure time 5 ms, EM gain 5), and for DPP-3 (exposure time 500 ms, EM gain 150), Hoechst 33342: (exposure time 30 ms, EM gain 25), and brightfield (exposure time 20 ms, EM gain 5). Analyses were performed in ImageJ. For data analysis, the average fluorescence intensity per image in each experimental condition was obtained by selecting regions of interest (ROIs) in the brightfield image. For display, the data were normalized to the average fluorescence intensity of the control conditions. Each experiment was repeated at least three separate times with identical results.
Cells were plated on a 10 cm dish with 10 mL of DMEM/High Glucose (10% FBS, 1% P/S, L-Glutamine, Sodium pyruvate) 36-48 hours prior to the day of experiment and maintained at 37° C., 5% CO2 so as to obtain 80-90% confluency. Cells were washed with DPBS and trypsinized with 1 mL 0.05% Trypsin. 5 mL of DMEM/High Glucose (10% FBS, L-Glutamine, Sodium pyruvate) was added and cells were spun down at 1200 rpm for 3 min. Media was discarded and cells were resuspended in 5 mL of Live Cell Imaging Solution and again spun down at 1200 rpm for 3 min. The cells pellets obtained were resuspended in 3-5 mL of Live Cell Imaging Solution and divided into 500 μL aliquots. The aliquots were treated with either 0.2% DMSO carrier or 1 μM of PalmB/ML348 or 1 μM/5 μM of ML349 inhibitor. After 30 min of incubation at room temperature, 1 μL of 2.5 mM DPP-3 in DMSO was added to each aliquot for a final concentration of 5 μM, and the solutions were mixed. After 5 min incubation at room temperature, fluorescence signal in FITC channel was measured for 10000 cells (5000 for HeLa experiments) on a LSR-Fortessa 4-15 HTS (BD digital instrument, 488 nm laser with 530/30 nm filter for FITC; BD, Franklin Lakes, N.J., United States of America). For analyzing DPP2 in HEK293T cells, the aliquots were treated with either 0.2% DMSO carrier or 2 μM of PalmB, 5 or 20 μM of ML348/ML349 and then analyzed by the protocol as mentioned above. Data was analyzed by FlowJo software version 10.0.8. For comparison of A431 starved versus non-starved, parallel 10 cm dishes of A431 cells were plated in 10 mL of DMEM (high glucose, 10% FBS, 1% P/S), and grown for 36 h. The growth media was removed, and replaced by 10 mL of either DMEM (High glucose) with 10% FBS to maintain “growth” conditions, or DMEM (High glucose) without FBS respectively for “starvation” conditions, and incubated for 14 h. […]
For orientation: Flow cytometry measures light scatter and fluorescence of single cells or particles in a stream.

SMILES strings stand for the structures.

Consider `O=C(CN1CCN(C(=O)c2ccco2)CC1)Nc1cc(C(F)(F)F)ccc1Cl` [ML348], for which the “effect of inhibitor on DPP-3 signal” value is “lower amounts of PalmB or ML348 were needed to perturb the signal”. Further, the “effect of inhibitor on DPP-2 fluorescent signal” value (5 μM inhibitor) is given as “perturbed”.

As to `COc1ccc(N2CCN(C(=O)c3cc4c(s3)-c3ccccc3S(=O)(=O)C4)CC2)cc1` [ML349], the “effect of inhibitor on DPP-3 signal” value is on record as “not substantially perturbed”. Further, the “effect of inhibitor on DPP-2 fluorescent signal” value (5 μM inhibitor) is recorded as “perturbed”.

As for `CCCCCCCCCC[C@@H]1C(=O)O[C@H]1CCc1ccc(OC)c(OC)c1` [PalmB, palmostatin B], the “effect of inhibitor on DPP-3 signal” value is “lower amounts of PalmB or ML348 were needed to perturb the signal”. The “effect of inhibitor on DPP-2 fluorescent signal” value (2 μM inhibitor) is “perturbed”.
